# Reference: patent US6720331B2, “1-substituted 1,2,3,4-tetrahydro-β-carboline and 3,4-dihydro-β-carboline and analogs as antitumor agents” (National Sun Yat-sen University, priority 2001, dated 2004)
# Like-named read-outs stand apart in the source and are kept apart here.
# Columns and labels:
# P-388 (murine leukemia) = assay: Growth inhibition of tumor cell line P-388 (Table 1); assay type: cell-based; settings: for IC50: Mus musculus, P388, 72 h, read-out: IC50, concentration inhibiting 50% of the growth of P-388
# [1] = system: KB-16 (human nasopharyngeal carcinoma); assay: Growth inhibition of tumor cell line KB-16 (Table 1); assay type: cell-based; settings: for IC50: Homo sapiens, KB16, 72 h, read-out: IC50, concentration inhibiting 50% of the growth of KB-16
# [2] = system: A-549 (human lung adenocarcinoma); assay: Growth inhibition of tumor cell line A-549 (Table 1); assay type: cell-based; settings: for IC50: Homo sapiens, A549, 144 h, read-out: IC50, concentration inhibiting 50% of the growth of A-549
# [3] = system: HT-29 (human colon adenocarcinoma); assay: Growth inhibition of tumor cell line HT-29 (Table 1); assay type: cell-based; settings: for IC50: Homo sapiens, HT-29, 144 h, read-out: IC50, concentration inhibiting 50% of the growth of HT-29
# murine P-388 cells = settings: Sakai et al., J Am Chem Soc 1986; cited from earlier work
# [4] = 3 day drug exposure, columns A/B = scaffold type
# [5] = 6 day drug exposure, columns A/B = scaffold type
Compound,IC50 (P-388 (murine leukemia); [4]),"IC50 [1, 4]","IC50 [2, 5]","IC50 [3, 5]",also measured
"1-(2′-Fluorenyl)-3,4-dihydro-β-carboline [Compound 28]",–,–,–,–,"IC50, concentration inhibiting 50% of the growth of P-388 (P-388 (murine leukemia); [4]): 0.1 µg/mL; IC50, concentration inhibiting 50% of the growth of KB-16 [1, 4]: 1.4 µg/mL; IC50, concentration inhibiting 50% of the growth of A-549 [2, 5]: 0.6 µg/mL; IC50, concentration inhibiting 50% of the growth of HT-29 [3, 5]: 0.7 µg/mL"
"1-(3′-Nitro-4′-Benzo-1″,3″-dioxole)-3,4-dihydro-β-carboline [Compound 27]",–,–,–,–,"IC50, concentration inhibiting 50% of the growth of P-388 (P-388 (murine leukemia); [4]): 0.3 µg/mL; IC50, concentration inhibiting 50% of the growth of KB-16 [1, 4]: 0.8 µg/mL; IC50, concentration inhibiting 50% of the growth of A-549 [2, 5]: 0.6 µg/mL; IC50, concentration inhibiting 50% of the growth of HT-29 [3, 5]: 1.0 µg/mL"
"O[C@]12C=C(c3nccc4c3[nH]c3ccccc34)[C@@H]3CCN(CCCC/C=C\CC1)C[C@@]31C[C@@H]3/C=C\CCCCN3[C@@H]12 [Compound 3, manzamine A, reference compound]",–,–,–,–,IC50 (P-388 (murine leukemia)): 0.07 µg/mL; IC50 [1]: < 0.001 µg/mL; IC50 [2]: 0.03 µg/mL; IC50 [3]: 0.1 µg/mL; cytotoxicity against murine P-388 cells (murine P-388 cells): 0.07 µg/mL
"Clc1ccc(C2NCCc3c2[nH]c2ccccc32)cc1 (stereo not drawn) [Compound 4, 1-(4′-Chlorophenyl)-1,2,3,4-tetrahydro-β-carboline]",0.2 µg/mL,0.7 µg/mL,0.6 µg/mL,0.9 µg/mL,–
"Brc1ccc(C2NCCc3c2[nH]c2ccccc32)cc1 (stereo not drawn) [Compound 5, 1-(4′-Bromophenyl)-1,2,3,4-tetrahydro-β-carboline]",1 µg/mL,2.1 µg/mL,3 µg/mL,1.1 µg/mL,–
"O=[N+]([O-])c1ccc(C2NCCc3c2[nH]c2ccccc32)cc1 (stereo not drawn) [Compound 6, 1-(4′-Nitrophenyl)-1,2,3,4-tetrahydro-β-carboline]",0.8 µg/mL,1.1 µg/mL,0.9 µg/mL,1.5 µg/mL,–
"CN(C)c1ccc(C2NCCc3c2[nH]c2ccccc32)cc1 (stereo not drawn) [Compound 7, 1-(4′-Dimethylaminophenyl)-1,2,3,4-tetrahydro-β-carboline]",2.2 µg/mL,1.7 µg/mL,1.6 µg/mL,0.7 µg/mL,–
"CCN(CC)c1ccc(C2NCCc3c2[nH]c2ccccc32)cc1 (stereo not drawn) [Compound 8, 1-(4′-N-Diethylaminophenyl)-1,2,3,4-tetrahydro-β-carboline]",–,–,–,–,"IC50, concentration inhibiting 50% of the growth of P-388 (P-388 (murine leukemia); [4]): 0.07 µg/mL; IC50, concentration inhibiting 50% of the growth of KB-16 [1, 4]: 0.2 µg/mL; IC50, concentration inhibiting 50% of the growth of A-549 [2, 5]: 1.1 µg/mL; IC50, concentration inhibiting 50% of the growth of HT-29 [3, 5]: 1.1 µg/mL"
"COc1ccc(C2NCCc3c2[nH]c2ccccc32)c(OC)c1 (stereo not drawn) [Compound 9, 1-(2′,4′-Dimethoxyphenyl)-1,2,3,4-tetrahydro-β-carboline]",0.6 µg/mL,0.7 µg/mL,1.1 µg/mL,1.1 µg/mL,–
"COc1ccc(C2NCCc3c2[nH]c2ccccc32)cc1OC (stereo not drawn) [Compound 10, 1-(3′,4′-Dimethoxyphenyl)-1,2,3,4-tetrahydro-β-carboline]",2.8 µg/mL,> 50 µg/mL,> 50 µg/mL,> 50 µg/mL,–
"COc1ccc(OC)c(C2NCCc3c2[nH]c2ccccc32)c1 (stereo not drawn) [Compound 11, 1-(2′,5′-Dimethoxyphenyl)-1,2,3,4-tetrahydro-β-carboline]",2.6 µg/mL,3.7 µg/mL,2 µg/mL,2.2 µg/mL,–
"COc1cc(OC)cc(C2NCCc3c2[nH]c2ccccc32)c1 (stereo not drawn) [Compound 12, 1-(3′,5′-Dimethoxyphenyl)-1,2,3,4-tetrahydro-β-carboline]",0.2 µg/mL,1.4 µg/mL,0.6 µg/mL,0.4 µg/mL,–
"COc1cc(C2NCCc3c2[nH]c2ccccc32)cc(OC)c1OC (stereo not drawn) [Compound 13, 1-(3′,4′,5′-Trimethoxyphenyl)-1,2,3,4-tetrahydro-β-carboline]",1.2 µg/mL,8.3 µg/mL,2 µg/mL,1.6 µg/mL,–
"O=[N+]([O-])c1cc(C2NCCc3c2[nH]c2ccccc32)cc2c1OCO2 (stereo not drawn) [Compound 14, 1-(3′-Nitroz4′-Benzo-1″,3″-dioxole)-1,2,3,4-tetrahydro-β-carboline]",–,–,–,–,"IC50, concentration inhibiting 50% of the growth of P-388 (P-388 (murine leukemia); [4]): 0.3 µg/mL; IC50, concentration inhibiting 50% of the growth of KB-16 [1, 4]: 6.0 µg/mL; IC50, concentration inhibiting 50% of the growth of A-549 [2, 5]: 1.7 µg/mL; IC50, concentration inhibiting 50% of the growth of HT-29 [3, 5]: 1.4 µg/mL"
"c1ccc2c(c1)Cc1cc(C3NCCc4c3[nH]c3ccccc43)ccc1-2 (stereo not drawn) [Compound 15, 1-(2′-Fluorenyl)-1,2,3,4-tetrahydro-β-carboline]",–,–,–,–,"IC50, concentration inhibiting 50% of the growth of P-388 (P-388 (murine leukemia); [4]): 0.1 µg/mL; IC50, concentration inhibiting 50% of the growth of KB-16 [1, 4]: 0.4 µg/mL; IC50, concentration inhibiting 50% of the growth of A-549 [2, 5]: 0.6 µg/mL; IC50, concentration inhibiting 50% of the growth of HT-29 [3, 5]: 0.5 µg/mL"
"CCn1c2ccccc2c2cc(C3NCCc4c3[nH]c3ccccc43)ccc21 (stereo not drawn) [Compound 16, 1-(9′-Ethyl-3′-carbazole)-1,2,3,4-tetrahydro-β-carboline]",–,–,–,–,"IC50, concentration inhibiting 50% of the growth of P-388 (P-388 (murine leukemia); [4]): 0.7 µg/mL; IC50, concentration inhibiting 50% of the growth of KB-16 [1, 4]: 0.8 µg/mL; IC50, concentration inhibiting 50% of the growth of A-549 [2, 5]: 0.8 µg/mL; IC50, concentration inhibiting 50% of the growth of HT-29 [3, 5]: 0.5 µg/mL"
"CN(C)c1ccc(C2=NCCc3c2[nH]c2ccccc32)cc1 [Compound 20, 1-(4′-Dimethylaminophenyl)-3,4-dihydro-β-carboline]",2.9 µg/mL,4.8 µg/mL,50 µg/mL,3 µg/mL,–
"CCN(CC)c1ccc(C2=NCCc3c2[nH]c2ccccc32)cc1 [Compound 21, 1-(4′-Diethylaminophenyl)-3,4-dihydro-β-carboline]",0.7 µg/mL,0.3 µg/mL,1.8 µg/mL,1.3 µg/mL,–
"COc1ccc(C2=NCCc3c2[nH]c2ccccc32)c(OC)c1 [Compound 22, 1-(2′,4′-Dimethoxyphenyl)-3,4-dihydro-β-carboline]",0.6 µg/mL,2.7 µg/mL,0.5 µg/mL,0.5 µg/mL,–
"COc1ccc(C2=NCCc3c2[nH]c2ccccc32)cc1OC [Compound 23, 1-(3′,4′-Dimethoxyphenyl)-3,4-dihydro-β-carboline]",2.7 µg/mL,15 µg/mL,12 µg/mL,2.7 µg/mL,–
"COc1ccc(OC)c(C2=NCCc3c2[nH]c2ccccc32)c1 [Compound 24, 1-(2′,5′-Dimethoxyphenyl)-3,4-dihydro-β-carboline]",1.1 µg/mL,0.7 µg/mL,0.2 µg/mL,0.4 µg/mL,–
"COc1cc(OC)cc(C2=NCCc3c2[nH]c2ccccc32)c1 [Compound 25, 1-(3′,5′-Dimethoxyphenyl)-3,4-dihydro-β-carboline]",0.4 µg/mL,1 µg/mL,0.6 µg/mL,0.6 µg/mL,–
"COc1cc(C2=NCCc3c2[nH]c2ccccc32)cc(OC)c1OC [Compound 26, 1-(3′,4′,5′-Trimethoxyphenyl)-3,4-dihydro-β-carboline]",1.2 µg/mL,1.4 µg/mL,0.5 µg/mL,0.7 µg/mL,–
"CC(=O)O[C@H]1C(=O)[C@@]2(C)[C@H]([C@H](OC(=O)c3ccccc3)[C@]3(O)C[C@H](OC(=O)[C@H](O)[C@@H](NC(=O)c4ccccc4)c4ccccc4)C(C)=C1C3(C)C)[C@]1(OC(C)=O)CO[C@@H]1C[C@@H]2O [Compound 30, paclitaxel, reference compound]",< 0.001 µg/mL,< 0.001 µg/mL,< 0.001 µg/mL,< 0.001 µg/mL,–
